Positions count from the first letter of the chain named.
What was measured:
Experiment in all cases: microscale thermophoresis
Assay type in all cases: binding
OsNAT9 (OsNAT9-GFP) [1] = molecular target: T1, OsNAT9 (OsNAT9-GFP) (Oryza sativa, UniProt Q10ET9, E346A)
T1 sequence (Q10ET9 1-527 E346A): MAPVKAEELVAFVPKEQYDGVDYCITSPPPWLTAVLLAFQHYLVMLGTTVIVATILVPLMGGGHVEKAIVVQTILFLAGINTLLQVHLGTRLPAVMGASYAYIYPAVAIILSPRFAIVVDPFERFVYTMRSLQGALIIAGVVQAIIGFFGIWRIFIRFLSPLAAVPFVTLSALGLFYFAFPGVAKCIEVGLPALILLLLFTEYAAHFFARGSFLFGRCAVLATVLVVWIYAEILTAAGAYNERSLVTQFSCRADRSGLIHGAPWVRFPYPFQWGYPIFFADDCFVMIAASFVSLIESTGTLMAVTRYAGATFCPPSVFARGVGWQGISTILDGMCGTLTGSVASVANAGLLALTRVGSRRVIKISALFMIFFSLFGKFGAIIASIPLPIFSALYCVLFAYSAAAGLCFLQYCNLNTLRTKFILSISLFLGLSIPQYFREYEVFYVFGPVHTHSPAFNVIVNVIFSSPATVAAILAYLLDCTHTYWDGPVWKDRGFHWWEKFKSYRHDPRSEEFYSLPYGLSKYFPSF

OsNAT9 (OsNAT9-GFP) [2] = molecular target: T2, OsNAT9 (OsNAT9-GFP) (Oryza sativa, UniProt Q10ET9)
T2 sequence (Q10ET9 1-527): T1 sequence (Q10ET9 1-527 E346A) with A346E

OsNAT9 (OsNAT9-GFP) [3] = molecular target: T3, OsNAT9 (OsNAT9-GFP) (Oryza sativa, UniProt Q10ET9, S344A)
T3 sequence (Q10ET9 1-527 S344A): T1 sequence (Q10ET9 1-527 E346A) with S344A, A346E

OsNAT9 (OsNAT9-GFP) [4] = molecular target: T4, OsNAT9 (OsNAT9-GFP) (Oryza sativa, UniProt Q10ET9, G349A)
T4 sequence (Q10ET9 1-527 G349A): T1 sequence (Q10ET9 1-527 E346A) with A346E, G349A

Kd (OsNAT9 (OsNAT9-GFP) [1]) [nM]	Kd (OsNAT9 (OsNAT9-GFP) [2]) [nM]	Kd (OsNAT9 (OsNAT9-GFP) [3]) [nM]	Kd (OsNAT9 (OsNAT9-GFP) [4]) [nM]	SMILES
80.7 ± 6.06	0.28 ± 0.23	101 ± 27.6	0.55 ± 0.53	O=C1O[C@H]([C@@H](O)CO)C(O)=C1O [AsA, ascorbic acid]
–	0.39 ± 0.11	–	–	O=c1[nH]c(=O)c2[nH]cnc2[nH]1 [xanthine]

Reference: paper PMC12080319 (The Plant Journal, 2025)
